Measured values published in patent US20220081412A1, “QUINOLINYL-PYRAZINE-CARBOXAMIDE COMPOUNDS AND USES THEREOF” (The Regents of the University of Michigan, priority 2018, published 2022).

Test system: MIA PaCa-2 cells
Experiment: Bru-seq analysis for nascent RNA synthesis (log2FC of genes, GSEA gene sets)
Format: cell-based, human
Conditions: 4 h
[1] = gene set HALLMARK_IL2_STAT5_SIGNALING
[2] = gene set HALLMARK_IL6_JAK_STAT3_SIGNALING
[3] = gene set HALLMARK_MTORC1_SIGNALING
[4] = gene set HALLMARK_OXIDATIVE_PHOSPHORYLATION
[5] = gene set HALLMARK_PI3K_AKT_MTOR_SIGNALING
[6] = gene set HALLMARK_TNFA_SIGNALING_VIA_NFKB
[7] = gene set HALLMARK_UNFOLDED_PROTEIN_RESPONSE
[8] = gene set HALLMARK_UV_RESPONSE_UP
[9] = gene set HALLMARK_XENOBIOTIC_METABOLISM
[10] = gene set HELLER_SILENCED_BY_METHYLATION_DN
[11] = gene set KAN_RESPONSE_TO_ARSENIC_TRIOXIDE
[12] = gene set KEGG_ACUTE_MYELOID_LEUKEMIA
[13] = gene set KEGG_ADIPOCYTOKINE_SIGNALING_PATHWAY
[14] = gene set KEGG_ALDOSTERONE_REGULATED_SODIUM_REABSORPTION
[15] = gene set KEGG_ANTIGEN_PROCESSING_AND_PRESENTATION
[16] = gene set KEGG_CITRATE_CYCLE_TCA_CYCLE
[17] = gene set KEGG_ENDOMETRIAL_CANCER
[18] = gene set KEGG_FATTY_ACID_METABOLISM
[19] = gene set KEGG_FRUCTOSE_AND_MANNOSE_METABOLISM
[20] = gene set KEGG_GLYCEROLIPID_METABOLISM
[21] = gene set KEGG_GLYCOLYSIS_GLUCONEOGENESIS
[22] = gene set KEGG_INSULIN_SIGNALING_PATHWAY
[23] = gene set KEGG_MAPK_SIGNALING_PATHWAY
[24] = gene set KEGG_MTOR_SIGNALING_PATHWAY
[25] = gene set KEGG_OXIDATIVE_PHOSPHORYLATION
[26] = gene set KEGG_PARKINSONS_DISEASE
[27] = gene set KEGG_PORPHYRIN_AND_CHLOROPHYLL_METABOLISM
[28] = gene set KEGG_PPAR_SIGNALING_PATHWAY
[29] = gene set KEGG_PYRUVATE_METABOLISM
[30] = gene set KEGG_SNARE_INTERACTIONS_IN_VESICULAR_TRANSPORT
[31] = gene set KEGG_SYSTEMIC_LUPUS_ERYTHEMATOSUS
[32] = gene set KEGG_VALINE_LEUCINE_AND_ISOLEUCINE_DEGRADATION
[33] = gene set PODAR_RESPONSE_TO_ADAPHOSTIN_UP
[34] = gene set REACTOME_CHOLESTEROL_BIOSYNTHESIS
[35] = gene set REACTOME_RNA_POL_I_PROMOTER_OPENING
[36] = gene set REACTOME_UNFOLDED_PROTEIN_RESPONSE
[37] = gene set SCHMIDT_POR_TARGETS_IN_LIMB_BUD_UP
[38] = gene set WILCOX_RESPONSE_TO_PROGESTERONE_UP
[39] = gene set ZHANG_TLX_TARGETS_36HR_UP
[40] = top downregulated genes, MIA PaCa-2 cells

Compound: CCN(CC)CCCC(C)Nc1cnc(C(=O)Nc2cc(C)cc3cccnc23)cn1 (stereo not shown) [J4, 5-((5-(diethylamino)pentan-2-yl)amino)-N-(6-methylquinolin-8-yl)pyrazine-2-carboxamide]
- ES [1]: 0.424
- NES [1]: 1.597
- ES [2]: 0.443
- NES [2]: 1.405
- ES [3]: 0.626
- NES [3]: 2.450
- ES (gene set HALLMARK_MYOGENESIS): 0.541
- NES (gene set HALLMARK_MYOGENESIS): 1.885
- ES [4]: 0.403
- NES [4]: 1.601
- ES (gene set HALLMARK_P53_PATHWAY): 0.565
- NES (gene set HALLMARK_P53_PATHWAY): 2.171
- ES (gene set HALLMARK_PEROXISOME): 0.457
- NES (gene set HALLMARK_PEROXISOME): 1.612
- ES [5]: 0.566
- NES [5]: 2.033
- ES [6]: 0.536
- NES [6]: 2.043
- ES [7]: 0.582
- NES [7]: 2.173
- ES [8]: 0.478
- NES [8]: 1.769
- ES [9]: 0.409
- NES [9]: 1.503
- ES [10]: 0.714
- NES [10]: 2.396
- ES (gene set HORTON_SREBF_TARGETS): 0.911
- NES (gene set HORTON_SREBF_TARGETS): 2.446
- ES [11]: 0.655
- NES [11]: 2.270
- ES [12]: 0.524
- NES [12]: 1.701
- ES [13]: 0.547
- NES [13]: 1.770
- ES [14]: 0.556
- NES [14]: 1.480
- ES [15]: 0.536
- NES [15]: 1.506
- ES [16]: 0.561
- NES [16]: 1.683
- ES [17]: 0.482
- NES [17]: 1.543
- ES [18]: 0.507
- NES [18]: 1.505
- ES [19]: 0.547
- NES [19]: 1.529
- ES [20]: 0.573
- NES [20]: 1.640
- ES [21]: 0.578
- NES [21]: 1.735
- ES [22]: 0.455
- NES [22]: 1.663
- ES (gene set KEGG_LYSOSOME): 0.611
- NES (gene set KEGG_LYSOSOME): 2.224
- ES [23]: 0.393
- NES [23]: 1.504
- ES (gene set KEGG_MELANOGENESIS): 0.526
- NES (gene set KEGG_MELANOGENESIS): 1.713
- ES [24]: 0.530
- NES [24]: 1.631
- ES [25]: 0.464
- NES [25]: 1.705
- ES [26]: 0.424
- NES [26]: 1.536
- ES [27]: 0.613
- NES [27]: 1.657
- ES [28]: 0.583
- NES [28]: 1.733
- ES (gene set KEGG_PROSTATE_CANCER): 0.445
- NES (gene set KEGG_PROSTATE_CANCER): 1.564
- ES [29]: 0.525
- NES [29]: 1.529
- ES [30]: 0.535
- NES [30]: 1.642
- ES [31]: 0.689
- NES [31]: 2.185
- ES [32]: 0.491
- NES [32]: 1.536
- ES (gene set LEONARD_HYPDXIA): 0.811
- NES (gene set LEONARD_HYPDXIA): 2.480
- ES (gene set LE_EGR2_TARGETS_DN): 0.689
- NES (gene set LE_EGR2_TARGETS_DN): 2.287
- ES [33]: 0.678
- NES [33]: 2.520
- ES (gene set QI_HYPDXIA): 0.624
- NES (gene set QI_HYPDXIA): 2.258
- ES (gene set REACTOME_AMYLO1DS): 0.753
- NES (gene set REACTOME_AMYLO1DS): 2.309
- ES [34]: 0.913
- NES [34]: 2.477
- ES [35]: 0.820
- NES [35]: 2.377
- ES [36]: 0.651
- NES [36]: 2.246
- ES [37]: 0.921
- NES [37]: 2.469
- ES [38]: 0.642
- NES [38]: 2.380
- ES [39]: 0.615
- NES [39]: 2.339
- ES (gene set ZHANG_TLX_TARGETS_UP): 0.710
- NES (gene set ZHANG_TLX_TARGETS_UP): 2.353
- log2FC ABCA1 [40]: −1.14
- log2FC AGAP6 [40]: −0.85
- log2FC AKAP5 [40]: −0.77
- log2FC CACNG8 [40]: −0.75
- log2FC CCND1 [40]: −0.67
- log2FC FERMT1 [40]: −0.91
- log2FC GPR75-ASB3 [40]: −0.89
- log2FC GPR135 [40]: −1.30
- log2FC HRH4 [40]: −1.09
- log2FC MX2 [40]: −0.78
- log2FC NEXN [40]: −0.76
- log2FC NOG [40]: −0.93
- log2FC NOXRED1 [40]: −0.73
- log2FC NPIPB11 [40]: −0.67
- log2FC NPR2 [40]: −1.08
- log2FC NTSR1 [40]: −0.89
- log2FC PTCH2 [40]: −0.72
- log2FC RFLNB [40]: −0.79
- log2FC SPDYA [40]: −1.18
- log2FC SYCE2 [40]: −0.98
- log2FC TAS2R20 [40]: −0.81
- log2FC TNS4 [40]: −1.05
- log2FC TSPAN4 [40]: −0.68
- log2FC TXNRD3NB [40]: −0.72
- log2FC ZDHHC11 [40]: −0.86
